Measurements taken from patent publication US20140221301A1, “COMBINATION TREATMENT FOR CANCER” (priority 2011, published 2014).

Tests used:
M9-ENL1 cells = experiment: Chemical screen, MTS assay, M9-ENL1 cells; type: cell-based, human; settings: 10 μM, 48 hours
Excerpt: To identify compounds active against leukemia stem cells, a library of drugs (n=312) with well-characterized pharmacokinetics and toxicology and a wide therapeutic window was compiled. This library was then screened to identify agents that reduced the viability of TEX and M9-ENL1 cells. TEX and M9-ENL1 cells were derived from lineage-depleted human cord blood cells (Lin-CB) transduced with TLS-ERG or MLL-ENL oncogenes, respectively, and, as shown previously, display properties of stem cells including hierarchal differentiation and marrow repopulation^14, 15. In this screen, TEX and M9-ENL1 cells were treated with aliquots of the compounds. After incubation, cell growth and viability was measured by the MTS assay. From this screen, tigecycline was identified.
TEX, and M9-ENL-1 cells were seeded into 96-well polystyrene tissue culture plates (Corning). […] 72 (TEX) and 48 (M9-ENL-1) hours after incubation, cell growth and viability was measured by MTS assay. […]
Cell growth and viability was assessed by the MTS assay (Promega, Madison, Wis.) according to the manufacturer's instructions. Apoptosis and cell death was measured by Annexin V-fluroscein isothiocyanate (FITC; Biovision Research Products, Mountain View, Calif.), propidium iodide staining and flow cytometry according to the manufacturer's instructions and as previously described^30. […]

[1] = intravenous doses of 300 mg; cited from earlier work

CN(C)c1cc(NC(=O)CNC(C)(C)C)c(O)c2c1C[C@H]1C[C@H]3[C@H](N(C)C)C(O)=C(C(N)=O)C(=O)[C@@]3(O)C(O)=C1C2=O [tigecycline]
cell growth and viability in screen (M9-ENL1 cells): cell growth inhibitor
tolerability [1]: well tolerated save for mild nausea
